# Measurements: patent publication US10874739B2, “Near-IR light-cleavable conjugates and conjugate precursors” (The United States of America, as represented by the …, priority 2016, dated 2020)
# Assays:
# [1] = test system: MDA-MB-468 (EGFR+); assay: Near-IR light-dependent growth inhibition, MTT, pre-incubation assay (media exchanged prior to photolysis); format: cell-based, human; settings: ±hν
# Experimental: (§1) MDA-MB-468 (EGFR overexpression) and MCF-7 (normal EGFR expression) human breast cancer cell lines were obtained from the NCI DTP, DCTD Tumor Repository. MDA-MB-468 was cultured in RPMI supplemented with 2 mM L-glutamine, 11 mM D-glucose, 24 mM sodium bicarbonate, 10% heat-inactivated fetal bovine serum, 100 units/mL penicillin, 100 μg/mL streptomycin, and 0.25 μg/mL amphotericin B. MCF-7 was cultured in DMEM supplemented with 4 mM L-glutamine, 25 mM D-glucose, 44 mM sodium bicarbonate, 10% heat-inactivated fetal bovine serum, 100 units/mL penicillin, 100 μg/mL streptomycin, and 0.25 μg/mL amphotericin B. Both cell lines were grown at 37° C. in an atmosphere of 20% O2 and 5% CO2. Stock cultures were maintained in continuously exponential growth by weekly passage of the appropriate number of cells following trypsinization with 0.25% Trypsin-EDTA (0.9 mM) in PBS.
# (§2) MDA-MB-468 or MCF-7 cells were seeded into 96-well plates (5×10^4 cells/well) and allowed to adhere overnight. […] Irradiation times may be calculated according to the following formula:
# (§3) [formula] […] Media was removed, 100 μL of DMSO added to each well to solubilize MTT formazan, and absorbance at 550 nm was recorded using a microplate reader. Drug effects were expressed as % cell viability relative to the DMSO (no inhibitor) control. […]
# [2] = test system: MCF-7 (EGFR−); assay: as above; format: cell-based, human; settings: ±hν
# Experimental: as §1, §2, §3
compound,measurement,setting,value
"CN(C)CCOc1ccc2[nH]c(C(=O)N3C[C@@H](CCl)c4c3cc(O)c3ccccc43)cc2c1 [DuoDM, duocarmycin DM, reference compound]",IC50,[1],0.007 ± 0.0006 nM
same,IC50,[2],0.0133 ± 0.0011 nM
